Reference: paper PMC6704710, “Preclinical evaluation of 3D185, a novel potent inhibitor of FGFR1/2/3 and CSF-1R, in FGFR-dependent and macrophage-dominant cancer models” (Journal of Experimental & Clinical Cancer Research : CR, 2019)

Assays:
Experiment in all cases: Eurofins kinase panel
Format in all cases: biochemical
Details in all cases: read-out: Inhibition rate (%)
Axl(h) = target: T1, Axl(h) (Homo sapiens, UniProt P30530)
T1 construct: purchased Eurofins (KinaseProfiler)
T1 sequence (P30530 26-894): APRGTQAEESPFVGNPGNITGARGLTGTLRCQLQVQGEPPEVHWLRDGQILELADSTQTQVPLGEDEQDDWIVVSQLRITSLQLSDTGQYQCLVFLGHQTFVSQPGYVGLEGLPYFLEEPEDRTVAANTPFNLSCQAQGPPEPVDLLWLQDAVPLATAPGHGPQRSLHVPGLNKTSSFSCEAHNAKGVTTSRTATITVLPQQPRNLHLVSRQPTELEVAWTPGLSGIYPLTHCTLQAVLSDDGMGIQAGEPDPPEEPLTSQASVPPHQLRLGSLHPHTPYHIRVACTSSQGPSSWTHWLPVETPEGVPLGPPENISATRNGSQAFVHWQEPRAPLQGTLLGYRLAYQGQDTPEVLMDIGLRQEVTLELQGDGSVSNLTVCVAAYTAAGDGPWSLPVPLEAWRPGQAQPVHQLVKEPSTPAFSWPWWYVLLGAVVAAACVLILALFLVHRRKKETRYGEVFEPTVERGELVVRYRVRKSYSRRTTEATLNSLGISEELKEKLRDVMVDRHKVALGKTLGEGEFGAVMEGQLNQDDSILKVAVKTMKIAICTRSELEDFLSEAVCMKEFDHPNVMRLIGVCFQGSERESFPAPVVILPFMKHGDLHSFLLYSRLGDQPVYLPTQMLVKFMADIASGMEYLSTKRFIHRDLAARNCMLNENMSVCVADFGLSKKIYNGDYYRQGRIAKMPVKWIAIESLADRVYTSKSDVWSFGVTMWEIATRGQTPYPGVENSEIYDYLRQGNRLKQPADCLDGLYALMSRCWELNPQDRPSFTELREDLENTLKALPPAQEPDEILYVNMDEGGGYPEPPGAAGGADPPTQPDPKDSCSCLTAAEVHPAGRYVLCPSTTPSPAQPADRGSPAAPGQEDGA

LRRK2(h) = target: T2, LRRK2(h) (Homo sapiens, UniProt Q5S007)
T2 construct: purchased Eurofins (KinaseProfiler)

SAPK3(h) = target: T3, SAPK3(h) (Homo sapiens, UniProt P53778)
T3 construct: purchased Eurofins (KinaseProfiler)
T3 sequence (P53778 1-367): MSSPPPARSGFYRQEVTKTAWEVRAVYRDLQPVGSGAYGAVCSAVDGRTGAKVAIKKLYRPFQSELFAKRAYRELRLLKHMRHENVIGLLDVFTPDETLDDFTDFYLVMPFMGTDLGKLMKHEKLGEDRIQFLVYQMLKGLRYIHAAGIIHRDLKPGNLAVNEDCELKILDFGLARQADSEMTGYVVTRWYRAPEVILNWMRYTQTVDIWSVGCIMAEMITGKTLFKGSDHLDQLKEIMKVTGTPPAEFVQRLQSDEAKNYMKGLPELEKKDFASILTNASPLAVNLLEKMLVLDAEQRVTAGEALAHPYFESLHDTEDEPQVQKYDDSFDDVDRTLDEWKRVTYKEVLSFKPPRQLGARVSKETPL

TYK2(h) = target: T4, TYK2(h) (Homo sapiens, UniProt P29597)
T4 construct: purchased Eurofins (KinaseProfiler)

ULK1(h) = target: T5, ULK1(h) (Homo sapiens, UniProt O75385)
T5 construct: purchased Eurofins (KinaseProfiler)
T5 sequence (O75385 1-1050): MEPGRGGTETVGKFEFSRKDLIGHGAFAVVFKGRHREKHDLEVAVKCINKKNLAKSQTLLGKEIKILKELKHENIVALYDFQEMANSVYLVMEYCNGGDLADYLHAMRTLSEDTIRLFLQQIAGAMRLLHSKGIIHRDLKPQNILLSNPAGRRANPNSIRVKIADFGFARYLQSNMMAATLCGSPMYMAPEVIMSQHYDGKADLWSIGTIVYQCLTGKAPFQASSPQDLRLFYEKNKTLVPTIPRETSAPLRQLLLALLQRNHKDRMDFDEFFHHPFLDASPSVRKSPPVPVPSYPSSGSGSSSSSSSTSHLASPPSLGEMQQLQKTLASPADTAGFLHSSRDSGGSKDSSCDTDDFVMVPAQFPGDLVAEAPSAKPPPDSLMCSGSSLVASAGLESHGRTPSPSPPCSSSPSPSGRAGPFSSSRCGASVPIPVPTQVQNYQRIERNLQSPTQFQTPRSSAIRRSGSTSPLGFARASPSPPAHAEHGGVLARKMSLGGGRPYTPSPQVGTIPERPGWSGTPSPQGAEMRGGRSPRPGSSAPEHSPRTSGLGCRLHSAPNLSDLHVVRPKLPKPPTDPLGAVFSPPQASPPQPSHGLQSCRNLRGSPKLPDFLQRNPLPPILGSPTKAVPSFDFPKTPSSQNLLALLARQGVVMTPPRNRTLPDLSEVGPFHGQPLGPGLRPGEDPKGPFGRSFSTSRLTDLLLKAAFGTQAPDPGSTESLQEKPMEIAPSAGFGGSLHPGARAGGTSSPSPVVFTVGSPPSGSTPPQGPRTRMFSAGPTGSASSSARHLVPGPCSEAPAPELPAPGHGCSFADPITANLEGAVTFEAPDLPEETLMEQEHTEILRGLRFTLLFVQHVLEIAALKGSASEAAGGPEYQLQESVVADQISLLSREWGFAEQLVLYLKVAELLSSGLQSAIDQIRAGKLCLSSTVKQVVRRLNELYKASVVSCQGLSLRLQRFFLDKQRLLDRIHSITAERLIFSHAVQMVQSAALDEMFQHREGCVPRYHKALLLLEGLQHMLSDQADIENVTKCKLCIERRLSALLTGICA

T4 sequence (P29597 whole entry): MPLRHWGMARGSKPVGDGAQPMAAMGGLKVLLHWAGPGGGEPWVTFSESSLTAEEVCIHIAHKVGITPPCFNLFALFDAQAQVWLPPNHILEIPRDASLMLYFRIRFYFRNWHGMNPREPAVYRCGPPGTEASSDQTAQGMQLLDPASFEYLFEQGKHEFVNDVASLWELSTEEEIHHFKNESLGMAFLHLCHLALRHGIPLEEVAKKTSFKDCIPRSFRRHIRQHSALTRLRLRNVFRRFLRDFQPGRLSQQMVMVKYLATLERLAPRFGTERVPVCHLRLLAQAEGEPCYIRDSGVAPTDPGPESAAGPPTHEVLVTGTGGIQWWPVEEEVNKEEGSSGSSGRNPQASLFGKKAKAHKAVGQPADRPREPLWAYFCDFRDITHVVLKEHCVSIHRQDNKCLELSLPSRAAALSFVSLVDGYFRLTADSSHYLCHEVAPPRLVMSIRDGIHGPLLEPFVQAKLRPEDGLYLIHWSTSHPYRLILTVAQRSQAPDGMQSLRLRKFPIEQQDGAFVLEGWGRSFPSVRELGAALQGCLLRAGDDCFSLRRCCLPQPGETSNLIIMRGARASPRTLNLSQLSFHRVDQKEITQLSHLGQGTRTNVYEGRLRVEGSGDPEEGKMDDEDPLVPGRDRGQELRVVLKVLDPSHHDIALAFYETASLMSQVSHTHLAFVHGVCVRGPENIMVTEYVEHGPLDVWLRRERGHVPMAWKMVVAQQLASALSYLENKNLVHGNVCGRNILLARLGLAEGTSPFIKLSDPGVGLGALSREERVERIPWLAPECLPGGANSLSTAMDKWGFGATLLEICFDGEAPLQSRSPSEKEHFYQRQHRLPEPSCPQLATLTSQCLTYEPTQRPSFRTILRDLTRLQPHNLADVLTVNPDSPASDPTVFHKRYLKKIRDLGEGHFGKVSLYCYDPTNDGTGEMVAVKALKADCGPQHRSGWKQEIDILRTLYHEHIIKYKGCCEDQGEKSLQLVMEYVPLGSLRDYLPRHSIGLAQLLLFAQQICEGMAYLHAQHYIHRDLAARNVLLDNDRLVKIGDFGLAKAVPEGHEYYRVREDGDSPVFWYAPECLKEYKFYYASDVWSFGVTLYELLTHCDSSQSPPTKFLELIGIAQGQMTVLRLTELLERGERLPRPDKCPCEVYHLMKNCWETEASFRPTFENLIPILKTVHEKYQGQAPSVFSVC
T2 sequence (Q5S007 whole entry): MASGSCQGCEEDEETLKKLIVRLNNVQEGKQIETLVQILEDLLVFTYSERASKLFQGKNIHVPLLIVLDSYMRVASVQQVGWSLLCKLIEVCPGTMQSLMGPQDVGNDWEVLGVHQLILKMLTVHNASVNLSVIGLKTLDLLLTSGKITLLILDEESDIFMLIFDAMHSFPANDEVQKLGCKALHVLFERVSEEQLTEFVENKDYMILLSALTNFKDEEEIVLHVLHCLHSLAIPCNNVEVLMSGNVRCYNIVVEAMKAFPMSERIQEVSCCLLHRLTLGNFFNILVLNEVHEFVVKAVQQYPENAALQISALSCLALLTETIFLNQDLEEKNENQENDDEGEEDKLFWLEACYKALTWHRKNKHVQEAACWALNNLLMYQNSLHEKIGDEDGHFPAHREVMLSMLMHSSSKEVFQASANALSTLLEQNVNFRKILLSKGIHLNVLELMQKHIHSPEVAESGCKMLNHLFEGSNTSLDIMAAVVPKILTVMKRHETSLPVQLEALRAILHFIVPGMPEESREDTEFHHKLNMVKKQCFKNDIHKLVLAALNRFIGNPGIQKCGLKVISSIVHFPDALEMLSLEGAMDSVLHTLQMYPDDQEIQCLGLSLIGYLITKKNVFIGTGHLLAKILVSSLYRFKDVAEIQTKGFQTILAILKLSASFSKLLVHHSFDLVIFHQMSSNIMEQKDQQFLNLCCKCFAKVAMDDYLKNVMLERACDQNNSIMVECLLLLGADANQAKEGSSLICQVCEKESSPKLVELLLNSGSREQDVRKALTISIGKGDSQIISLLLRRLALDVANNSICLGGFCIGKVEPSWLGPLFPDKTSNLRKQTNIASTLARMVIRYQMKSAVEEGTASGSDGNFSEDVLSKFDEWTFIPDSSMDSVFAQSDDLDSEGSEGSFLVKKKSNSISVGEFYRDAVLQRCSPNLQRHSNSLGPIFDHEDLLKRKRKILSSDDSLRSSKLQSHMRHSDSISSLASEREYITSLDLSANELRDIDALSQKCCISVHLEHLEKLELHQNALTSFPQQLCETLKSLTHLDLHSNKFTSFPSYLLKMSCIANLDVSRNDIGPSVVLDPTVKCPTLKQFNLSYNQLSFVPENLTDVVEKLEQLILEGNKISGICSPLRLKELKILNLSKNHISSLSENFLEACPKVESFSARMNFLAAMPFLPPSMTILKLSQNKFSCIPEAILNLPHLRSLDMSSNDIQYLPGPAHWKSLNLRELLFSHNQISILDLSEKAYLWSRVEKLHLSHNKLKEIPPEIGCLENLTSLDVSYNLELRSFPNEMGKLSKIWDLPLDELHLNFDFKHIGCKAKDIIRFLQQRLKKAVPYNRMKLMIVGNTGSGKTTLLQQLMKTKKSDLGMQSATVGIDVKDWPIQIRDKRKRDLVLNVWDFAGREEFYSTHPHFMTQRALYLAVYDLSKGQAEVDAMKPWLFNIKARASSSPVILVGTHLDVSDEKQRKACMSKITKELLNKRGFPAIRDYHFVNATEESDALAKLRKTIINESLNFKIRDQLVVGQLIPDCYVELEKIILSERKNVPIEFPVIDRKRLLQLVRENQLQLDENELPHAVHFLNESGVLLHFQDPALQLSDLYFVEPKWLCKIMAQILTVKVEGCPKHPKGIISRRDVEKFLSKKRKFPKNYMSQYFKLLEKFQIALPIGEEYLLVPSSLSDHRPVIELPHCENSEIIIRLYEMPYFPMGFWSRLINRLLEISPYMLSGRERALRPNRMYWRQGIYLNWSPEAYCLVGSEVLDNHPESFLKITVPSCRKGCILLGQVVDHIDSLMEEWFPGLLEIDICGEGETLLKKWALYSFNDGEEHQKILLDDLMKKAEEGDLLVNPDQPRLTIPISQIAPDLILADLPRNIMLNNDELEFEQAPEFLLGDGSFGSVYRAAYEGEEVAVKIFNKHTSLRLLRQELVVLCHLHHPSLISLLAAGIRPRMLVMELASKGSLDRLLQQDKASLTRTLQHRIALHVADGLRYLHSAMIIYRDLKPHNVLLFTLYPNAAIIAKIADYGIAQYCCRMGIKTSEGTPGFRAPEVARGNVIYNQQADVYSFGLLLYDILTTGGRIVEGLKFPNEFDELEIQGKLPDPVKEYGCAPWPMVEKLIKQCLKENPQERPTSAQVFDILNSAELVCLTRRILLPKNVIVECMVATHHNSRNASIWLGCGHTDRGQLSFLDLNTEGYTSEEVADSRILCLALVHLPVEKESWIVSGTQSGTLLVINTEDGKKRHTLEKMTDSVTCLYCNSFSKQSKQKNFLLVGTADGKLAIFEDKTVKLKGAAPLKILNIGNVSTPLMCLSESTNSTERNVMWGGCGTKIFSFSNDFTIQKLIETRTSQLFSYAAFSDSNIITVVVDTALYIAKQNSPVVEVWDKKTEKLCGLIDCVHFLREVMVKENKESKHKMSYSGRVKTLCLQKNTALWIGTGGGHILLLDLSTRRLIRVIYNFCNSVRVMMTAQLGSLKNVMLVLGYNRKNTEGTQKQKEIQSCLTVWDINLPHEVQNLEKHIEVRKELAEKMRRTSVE

## COc1cc(OC)c(Cl)c(-c2ccc3c(NC(=O)c4ccc(N5CCNC(C)(C)C5)cc4)n[nH]c3n2)c1Cl [3D185]
Axl(h); 10 nM
  inhibition at 0.01 µM: -7%
Axl(h); 100 nM
  inhibition at 0.1 µM: -9%
Axl(h); 1000 nM
  inhibition at 1 µM: 26%
LRRK2(h); 10 nM
  inhibition at 0.01 µM: -10%
LRRK2(h); 100 nM
  inhibition at 0.1 µM: -3%
LRRK2(h); 1000 nM
  inhibition at 1 µM: 21%
SAPK3(h); 10 nM
  inhibition at 0.01 µM: -4%
SAPK3(h); 100 nM
  inhibition at 0.1 µM: -12%
SAPK3(h); 1000 nM
  inhibition at 1 µM: -7%
TYK2(h); 10 nM
  inhibition at 0.01 µM: 1%
TYK2(h); 100 nM
  inhibition at 0.1 µM: 14%
TYK2(h); 1000 nM
  inhibition at 1 µM: 67%
ULK1(h); 10 nM
  inhibition at 0.01 µM: -2%
ULK1(h); 100 nM
  inhibition at 0.1 µM: 4%
ULK1(h); 1000 nM
  inhibition at 1 µM: 5%
